{
  "source": "patent US20150140002A1",
  "about": "“USE OF A PCSK9 INHIBITOR TO TREAT […]” (Sanofi, priority 2013, published 2015)",
  "test_system": "patients with primary hypercholesterolemia (heFH and non-FH) who are intolerant to statins",
  "settings": "in vivo",
  "data": [
    {"smiles": "CC(C)c1c(C(=O)Nc2ccccc2)c(-c2ccccc2)c(-c2ccc(F)cc2)n1CC[C@@H](O)C[C@@H](O)CC(=O)O", "note": "[atorvastatin]", "values": [
      {"measurement": "Cardiac disorders (SOC)", "setting": "human", "result": "2 (3.2%) patients (%)"},
      {"measurement": "Ear and labyrinth disorders (SOC)", "setting": "human", "result": "1 (1.6%) patients (%)"},
      {"measurement": "General allergic TEAEs (MedDRA SMQ Hypersensitivity)", "setting": "human", "result": "4 (6.3%) patients (%)"},
      {"measurement": "Investigations (SOC)", "setting": "human", "result": "3 (4.8%) patients (%)"},
      {"measurement": "Myalgia", "setting": "human", "result": 27, "unit": "%"},
      {"measurement": "Psychiatric disorders (SOC)", "setting": "human", "result": "2 (3.2%) patients (%)"},
      {"measurement": "Skeletal muscle-related TEAEs (CMQ preferred term)", "setting": "human", "result": "25 (39.7%) patients (%)"},
      {"measurement": "TEAEs", "setting": "human", "result": "54 (85.7%) patients (%)"},
      {"measurement": "Treatment-emergent SAEs", "setting": "human", "result": "7 (11.1%) patients (%)"},
      {"measurement": "Treatment-emergent injection site reactions (ISRs)", "setting": "human", "result": "1 (1.6%) patients (%)"},
      {"measurement": "Treatment-emergent neurologic AEs", "setting": "human", "result": "8 (12.7%) patients (%)"},
      {"measurement": "Treatment-emergent skeletal muscle-related events resulting in early treatment discontinuation", "setting": "human", "result": "13 (20.6%) patients (%)"},
      {"measurement": "back pain", "setting": "human", "result": 7.9, "unit": "%"},
      {"measurement": "early termination due to musculoskeletal and connective tissues disorders SOC events", "setting": "human", "result": "14 [22.2%] patients [%]"},
      {"measurement": "fatigue", "setting": "human", "result": 7.9, "unit": "%"},
      {"measurement": "headache", "setting": "human", "result": 6.3, "unit": "%"},
      {"measurement": "insomnia", "setting": "human", "result": "1 (1.6%) reports (%)"},
      {"measurement": "muscle spasms", "setting": "human", "result": 11.1, "unit": "%"},
      {"measurement": "muscular weakness", "setting": "human", "result": 6.3, "unit": "%"},
      {"measurement": "palpitations", "setting": "human", "result": "0 reports (%)"},
      {"measurement": "paraesthesia", "setting": "human", "result": 6.3, "unit": "%"},
      {"measurement": "patients who prematurely discontinued study treatment due to a TEAE", "setting": "human", "result": "16 (25.4%) patients (%)"},
      {"measurement": "patients who prematurely terminated study treatment due to adverse events", "setting": "human", "result": "16 (25.4%) patients (%)"},
      {"measurement": "rate of AEs", "setting": "human", "result": 86, "unit": "%"},
      {"measurement": "vertigo", "setting": "human", "result": "1 (1.6%) reports (%)"},
      {"measurement": "Treatment-emergent neurocognitive disorders", "result": "zero"}
    ]}
  ]
}
